Data reported in the NIST ThermoML archive (doi:10.1016/j.jct.2012.11.014).
± gives the expanded uncertainty stated by the source.

Test: xn = mol fraction of the nth substance listed
Conditions: 101 kPa, Liquid; for speed of sound: Frequency=2 MHz, Linear variable-path acoustic interferometer; for viscosity: Oscillating disk viscometry; for mass density: Vibrating tube method

C[NH+](C)C.O=P([O-])(O)O [trimethylammonium dihydrogen phosphate] + C[S+](C)[O-]
Conditions | mass density [kg/m3] | speed of sound [m/s] | viscosity [mPa·s]
298.15 K, x1 = 0.0264 | 1101.75 ± 1 | 1494 ± 3 | 2.17 ± 0.14
298.15 K, x1 = 0.0397 | 1104.69 ± 1 | 1493 ± 3 | 2.25 ± 0.14
298.15 K, x1 = 0.0708 | 1111.45 ± 1 | 1492 ± 3 | 2.45 ± 0.16
298.15 K, x1 = 0.1172 | 1121.12 ± 1 | 1494 ± 3 | 2.74 ± 0.18
298.15 K, x1 = 0.1673 | 1130.48 ± 1.1 | 1496 ± 3 | 3.05 ± 0.2
298.15 K, x1 = 0.2284 | 1141.05 ± 1.1 | 1502 ± 3 | 3.41 ± 0.22
298.15 K, x1 = 0.2934 | 1153.02 ± 1.1 | 1510 ± 3 | 3.79 ± 0.25
298.15 K, x1 = 0.3413 | 1160.74 ± 1.1 | 1518 ± 3 | 4.07 ± 0.27
298.15 K, x1 = 0.4012 | 1172.7 ± 1.1 | 1527 ± 3 | 4.41 ± 0.29
298.15 K, x1 = 0.4659 | 1185.32 ± 1.1 | 1540 ± 3 | 4.77 ± 0.32
298.15 K, x1 = 0.5306 | 1199.2 ± 1.1 | 1554 ± 3 | 5.12 ± 0.34
298.15 K, x1 = 0.6022 | 1215.92 ± 1.1 | 1570 ± 3 | 5.51 ± 0.37
298.15 K, x1 = 0.6728 | 1235.08 ± 1.1 | 1587 ± 3 | 5.89 ± 0.39
298.15 K, x1 = 0.7504 | 1257.14 ± 1.1 | 1608 ± 3 | 6.3 ± 0.42
298.15 K, x1 = 0.8137 | 1278.01 ± 1.1 | 1624 ± 3 | 6.64 ± 0.45
298.15 K, x1 = 0.8805 | 1302.18 ± 1.1 | 1641 ± 3 | 6.99 ± 0.47
298.15 K, x1 = 0.9643 | 1337.27 ± 1.1 | 1662 ± 3 | 7.45 ± 0.5
298.15 K, x1 = 0.9858 | 1347.05 ± 1.1 | 1668 ± 3 | 7.56 ± 0.51
298.15 K, x1 = 1 | 1353.61 ± 1.1 | 1672 ± 3 | 7.64 ± 0.52
303.15 K, x1 = 0.0264 | 1099.07 ± 1 | 1471 ± 3 | 1.95 ± 0.12
303.15 K, x1 = 0.0397 | 1102.31 ± 1 | 1471 ± 3 | 2.02 ± 0.13
303.15 K, x1 = 0.0708 | 1109.32 ± 1 | 1471 ± 3 | 2.18 ± 0.14
303.15 K, x1 = 0.1172 | 1119.09 ± 1 | 1474 ± 3 | 2.43 ± 0.16
303.15 K, x1 = 0.1673 | 1128.56 ± 1.1 | 1477 ± 3 | 2.69 ± 0.17
303.15 K, x1 = 0.2284 | 1139.84 ± 1.1 | 1483 ± 3 | 2.99 ± 0.19
303.15 K, x1 = 0.2934 | 1151.1 ± 1.1 | 1491 ± 3 | 3.31 ± 0.22
303.15 K, x1 = 0.3413 | 1160.68 ± 1.1 | 1499 ± 3 | 3.53 ± 0.23
303.15 K, x1 = 0.4012 | 1171.28 ± 1.1 | 1510 ± 3 | 3.81 ± 0.25
303.15 K, x1 = 0.4659 | 1184.46 ± 1.1 | 1523 ± 3 | 4.11 ± 0.27
303.15 K, x1 = 0.5306 | 1198.94 ± 1.1 | 1537 ± 3 | 4.4 ± 0.29
303.15 K, x1 = 0.6022 | 1214.84 ± 1.1 | 1554 ± 3 | 4.72 ± 0.32
303.15 K, x1 = 0.6728 | 1233.24 ± 1.1 | 1572 ± 3 | 5.02 ± 0.34
303.15 K, x1 = 0.7504 | 1256.51 ± 1.1 | 1592 ± 3 | 5.36 ± 0.36
303.15 K, x1 = 0.8137 | 1276.03 ± 1.1 | 1610 ± 3 | 5.64 ± 0.38
303.15 K, x1 = 0.8805 | 1302.06 ± 1.1 | 1627 ± 3 | 5.93 ± 0.4
303.15 K, x1 = 0.9643 | 1336.07 ± 1.1 | 1649 ± 3 | 6.3 ± 0.43
303.15 K, x1 = 0.9858 | 1344.82 ± 1.1 | 1656 ± 3 | 6.4 ± 0.43
303.15 K, x1 = 1 | 1350.62 ± 1.1 | 1660 ± 3 | 6.46 ± 0.44
308.15 K, x1 = 0.0264 | 1093.45 ± 1 | 1459 ± 3 | 1.78 ± 0.11
308.15 K, x1 = 0.0397 | 1096.91 ± 1 | 1460 ± 3 | 1.83 ± 0.11
308.15 K, x1 = 0.0708 | 1104.49 ± 1 | 1461 ± 3 | 1.97 ± 0.12
308.15 K, x1 = 0.1172 | 1114.06 ± 1 | 1464 ± 3 | 2.18 ± 0.14
308.15 K, x1 = 0.1673 | 1124.47 ± 1.1 | 1468 ± 3 | 2.41 ± 0.15
308.15 K, x1 = 0.2284 | 1136.12 ± 1.1 | 1475 ± 3 | 2.67 ± 0.17
308.15 K, x1 = 0.2934 | 1147.36 ± 1.1 | 1485 ± 3 | 2.94 ± 0.19
308.15 K, x1 = 0.3413 | 1157.63 ± 1.1 | 1492 ± 3 | 3.13 ± 0.2
308.15 K, x1 = 0.4012 | 1167.76 ± 1.1 | 1504 ± 3 | 3.37 ± 0.22
308.15 K, x1 = 0.4659 | 1181.31 ± 1.1 | 1518 ± 3 | 3.62 ± 0.23
308.15 K, x1 = 0.5306 | 1196.24 ± 1.1 | 1531 ± 3 | 3.86 ± 0.25
308.15 K, x1 = 0.6022 | 1214.48 ± 1.1 | 1548 ± 3 | 4.13 ± 0.27
308.15 K, x1 = 0.6728 | 1232.06 ± 1.1 | 1567 ± 3 | 4.38 ± 0.28
308.15 K, x1 = 0.7504 | 1256.27 ± 1.1 | 1588 ± 3 | 4.67 ± 0.3
308.15 K, x1 = 0.8137 | 1276.94 ± 1.1 | 1605 ± 3 | 4.91 ± 0.32
308.15 K, x1 = 0.8805 | 1301.06 ± 1.1 | 1625 ± 3 | 5.16 ± 0.34
308.15 K, x1 = 0.9643 | 1334.09 ± 1.1 | 1649 ± 3 | 5.47 ± 0.36
308.15 K, x1 = 0.9858 | 1342.26 ± 1.1 | 1656 ± 3 | 5.56 ± 0.36
308.15 K, x1 = 1 | 1347.59 ± 1.1 | 1661 ± 3 | 5.61 ± 0.37
313.15 K, x1 = 0.0264 | 1089.15 ± 1 | 1442 ± 3 | 1.65 ± 0.1
313.15 K, x1 = 0.0397 | 1092.77 ± 1 | 1443 ± 3 | 1.7 ± 0.11
313.15 K, x1 = 0.0708 | 1100.69 ± 1 | 1444 ± 3 | 1.83 ± 0.11
313.15 K, x1 = 0.1172 | 1109.86 ± 1 | 1449 ± 3 | 2.02 ± 0.13
313.15 K, x1 = 0.1673 | 1121.53 ± 1.1 | 1452 ± 3 | 2.22 ± 0.14
313.15 K, x1 = 0.2284 | 1134.54 ± 1.1 | 1460 ± 3 | 2.45 ± 0.15
313.15 K, x1 = 0.2934 | 1145.27 ± 1.1 | 1471 ± 3 | 2.69 ± 0.17
313.15 K, x1 = 0.3413 | 1156.54 ± 1.1 | 1479 ± 3 | 2.86 ± 0.18
313.15 K, x1 = 0.4012 | 1167.52 ± 1.1 | 1493 ± 3 | 3.07 ± 0.19
313.15 K, x1 = 0.4659 | 1181.73 ± 1.1 | 1507 ± 3 | 3.3 ± 0.21
313.15 K, x1 = 0.5306 | 1196.14 ± 1.1 | 1522 ± 3 | 3.51 ± 0.22
313.15 K, x1 = 0.6022 | 1214.06 ± 1.1 | 1540 ± 3 | 3.75 ± 0.24
313.15 K, x1 = 0.6728 | 1232.95 ± 1.1 | 1560 ± 3 | 3.98 ± 0.25
313.15 K, x1 = 0.7504 | 1256.04 ± 1.1 | 1581 ± 3 | 4.24 ± 0.27
313.15 K, x1 = 0.8137 | 1276.61 ± 1.1 | 1601 ± 3 | 4.44 ± 0.28
313.15 K, x1 = 0.8805 | 1299.14 ± 1.1 | 1623 ± 3 | 4.67 ± 0.3
313.15 K, x1 = 0.9643 | 1331.48 ± 1.1 | 1651.4 ± 2.7 | 4.95 ± 0.32
313.15 K, x1 = 0.9858 | 1339.35 ± 1.1 | 1659 ± 3 | 5.02 ± 0.32
313.15 K, x1 = 1 | 1344.52 ± 1.1 | 1664 ± 3 | 5.07 ± 0.32
